Test results from patent publication US6946442B2, “Method of hastening cervical ripening” (priority 1994, dated 2005).

What was measured:
[1] = test system: VEGF protein expression; assay: Western blot analysis, VEGF protein expression in non-pregnant cervical explants and culture medium; assay type: cell-based, human
Protocol: Human uterine non-pregnant cervix tissue was obtained from non-malignant hysterectomies. The samples were maintained in phenol red free culture media DMEM supplemented with penicillin (1%), streptomycin (1%) and L-Glutamine (1%) and transferred to the laboratory on ice. The biopsies were washed in ice-cold saline solution then cut into small sections 1 to 2 mm and incubated in the above culture medium in 60×15 mm petri dishes at 37° C. in 5% CO2/95% air. Progesterone (P2) was added to the culture medium at concentrations of 10^−4, 10^−6 and 10^−8 M. 17−β Estradiol (E2) was added to the culture medium either alone at concentrations of 10^−6, […] M, followed by addition of Progesterone (P2) at concentrations ranging from 10^31 4 to 10^−8 M. The effect of VEGF165 (1, 10, 50, 100, 200 ng/ml) and PAF (10^−6−10^−10 M) in the non-pregnant cervical explants was also investigated. This culture system was chosen because it allows study of the intact tissues in their own matrix and avoids the potentially artefact-producing procedures of cell dispersion and culture.
Cervical tissue, after having been stimulated with VEGF165 or PAF for 24 hours or with the ovarian steroid hormones, 17β-estradiol (E2) and progesterone (P2), for 48 hours, was washed twice in ice-cold PBS and homogenised in ice-cold, high salt lysis buffer (containing 0.4 M KCl, 20 mM HEPES, 1 mM DTT, 20% glycerol, 0.5 mg/ml Bacitracin, 40 μg/ml PMSF, 5 μg/ml Peptastin, 5 μg/ml Leupeptin). Homogenates were centrifuged at 12,000 revolutions/min for 15 minutes and the supernatants containing extracted protein were collected. The culture medium used to incubate the tissue with or without E2, P2 or E2+P2 was also collected, centrifuged. To the supernatant, 3 volumes of ethanol were added and stored at −70° C. for at least 5 hours. Then, the culture medium/ethanol suspension was centrifuged at 10,000 rpm for 10 min and the pellet containing the protein was resuspended in lysis buffer. Total protein, extracted from both tissue and medium, was quantified with the Bio-Rad protein assay, and 500 ng of protein from each sample was diluted in loading buffer (containing 0.02 M Tris-HCl, 0.002 M EDTA, 2% SDS, 10% mercaptoethanol, 20% glycerol, bromophenol blue). Samples were subjected to electrophoresis in a 12% polyacrylamide gel with 5% stacking gel and transferred overnight at 36V onto a nitrocellulose membrane. The membrane was blocked at RT with 1% skimmed milk in Tris-buffered saline solution before incubation with an antiserum (diluted 1:500) directed against the rabbit VEGF165 at 4° C. After a 15 min. wash and 2×5 min. washes with Tris-buffered saline solution at room temperature (RT), the membrane was incubated in an anti-rabbit secondary Ab conjugated to alkaline phosphatase. In case of Western blotting experiments for Connexin-43, the membrane was blocked overnight at 4° C. in blocking buffer (1% BSA in 10 mM Tris pH 7.5, 100 mM NaCl, 0.1% Tween 20), before incubation with a monoclonal antibody directed against Connexin-43 again overnight at 4° C. After a 6×5 min. washes with Tris-buffered saline solution, the membrane was incubated in a mouse secondary Ab conjugated to alkaline phosphatase. A chemiluminescence system (ECL-Amersham) was used to visualise the presence of VEGF165, Connexin-43 or Flt-1 protein. This is a highly sensitive and quantitative assay for detecting proteins immobilised on membranes.
Cervical tissue explants in culture medium were exposed to various concentrations of the ovarian steroid hormones, 17β-estradiol (E2) and progesterone (P2), for 48 hours, followed by extraction of protein from the tissue as well as the culture medium.

[2] = test system: Connexin-43; assay: Western blot, Connexin-43 expression in non-pregnant cervical explants; assay type: cell-based, human
Protocol: (§1) Human uterine non-pregnant cervix tissue was obtained from non-malignant hysterectomies. The samples were maintained in phenol red free culture media DMEM supplemented with penicillin (1%), streptomycin (1%) and L-Glutamine (1%) and transferred to the laboratory on ice. The biopsies were washed in ice-cold saline solution then cut into small sections 1 to 2 mm and incubated in the above culture medium in 60×15 mm petri dishes at 37° C. in 5% CO2/95% air. Progesterone (P2) was added to the culture medium at concentrations of 10^−4, 10^−6 and 10^−8 M. 17−β Estradiol (E2) was added to the culture medium either alone at concentrations of 10^−6, 10^−7 and 10^−8 M or for 2 hours to prime the cervical explants at a concentration of 10^−7 M, followed by addition of Progesterone (P2) at concentrations ranging from 10^31 4 to 10^−8 M. The effect of VEGF165 (1, 10, 50, 100, 200 ng/ml) and PAF (10^−6−10^−10 M) in the non-pregnant cervical explants was also investigated. This culture system was chosen because it allows study of the intact tissues in their own matrix and avoids the potentially artefact-producing procedures of cell dispersion and culture. In this system, the cells remain intact for at least 5 days.

[3] = test system: pregnant rats; assay: Preterm delivery induced by progesterone receptor antagonist in pregnant rats; assay type: in vivo, Sprague-Dawley rats; conditions: 10 mg s.c. on day 19, in 24 h
Protocol: Treatments (Protocols A and B): Mouse recombinant VEGF164 (the murine equivalent of human VEGF165) was dissolved at a concentration of 10 and 100 ng/ml gel. Control animals received applications of gel only. Some animals were injected on day 19 s.c. with 10 mg progesterone receptor antagonist RU486, a protocol which induces in 24 h preterm delivery in 80% of animals.

[4] = test system: rat cervix; assay: Tensile properties (stress-strain, extensibility) of isolated cervix after intravaginal treatment of pregnant rats; assay type: in vivo, Sprague-Dawley rats; conditions: for cervical extensibility: 100 ng/ml gel intravaginally
Protocol: Control animals received applications of gel only.
The tensile properties of the isolated cervix were evaluated using the Shimadzu EZ-Test instrumentation using a test regimen which mimicked the conditions during labour. Briefly, the cervix was suspended between two hooks by means of threads passed through the cervical canal. It was then placed in a 40 ml tissue bath containing 10 mM HEPES/PBS solution (pH=7.4) maintained at 25° C. […] Each cervix was allowed 30 min. to equilibrate. The lower hook was fixed while the upper hook was movable, to simultaneously record displacement and force with a sample rate of 20 Hz. […] The upper hook was moved until a small resistance of the tissue (20 mN) was recorded after which the tester automatically moved the upper hook to incrementally stretch the cervix in steps of 0.4 mm. at 1 min. intervals. Between subsequent stretches the hook rested for 1 min. allowing the cervix to accommodate. During the accommodation periods the cervix reverted back to a relaxed state, therefore diminishing the opposed resistance and thus the tension recorded by the tester. FIG. 15 illustrates a typical stress-strain plot of a rat cervix. […] At YP permanent morphological changes and breaks in the material begin to occur. Break-point (BP) is the moment where the tissue completely breaks and the load abruptly falls toward zero. To quantify the elastic behaviour of the cervix (cervical resistance), straight lines are fitted through the linear portion of the force versus displacement curve. The slopes of the upper, lower and mid-point regression lines that are related to Young's modulus for elastic materials were used to best characterise the tensile properties of the sample. A larger slope indicates a higher resistance to dilation, therefore lower extensibility.

[5] = test system: Connexin-43; conditions: non-pregnant myometrial explants, FIG. 11A
Protocol: Cervical tissue, after having been stimulated with VEGF165 or PAF for 24 hours or with the ovarian steroid hormones, 17β-estradiol (E2) and progesterone (P2), for 48 hours, was washed twice in ice-cold PBS and homogenised in ice-cold, high salt lysis buffer (containing 0.4 M KCl, 20 mM HEPES, 1 mM DTT, 20% glycerol, 0.5 mg/ml Bacitracin, 40 μg/ml PMSF, 5 μg/ml Peptastin, 5 μg/ml Leupeptin). Homogenates were centrifuged at 12,000 revolutions/min for 15 minutes and the supernatants containing extracted protein were collected. The culture medium used to incubate the tissue with or without E2, P2 or E2+P2 was also collected, centrifuged. To the supernatant, 3 volumes of ethanol were added and stored at −70° C. for at least 5 hours. Then, the culture medium/ethanol suspension was centrifuged at 10,000 rpm for 10 min and the pellet containing the protein was resuspended in lysis buffer. Total protein, extracted from both tissue and medium, was quantified with the Bio-Rad protein assay, and 500 ng of protein from each sample was diluted in loading buffer (containing 0.02 M Tris-HCl, 0.002 M EDTA, 2% SDS, 10% mercaptoethanol, 20% glycerol, bromophenol blue). […] This is a highly sensitive and quantitative assay for detecting proteins immobilised on membranes.

[6] = test system: VEGF165 mRNA; assay: Northern blot hybridisation, VEGF165 mRNA in non-pregnant cervical tissue explants; assay type: cell-based, human; conditions: 48 hours
Protocol: as §1, with “days. RNA (40 μg/lane) was loaded onto a 1.2% agarose/formaldehyde gel, electrophoretically separated, transferred onto Hybond nylon membranes, and immobilised by exposure to U.V. light for 5 min. Membranes were prehybridized at 42° C. for 8 hours in a solution containing 50% formamide, 5×SSC, 5×Denhardt's solution, 0.5% SDS and salmon sperm DNA at 150 μg/ml. The VEGF165 cDNA was labelled with [α-^32P]dCTP by random-primer extension. 18s oligonucleotide probe labelled by T4 polynucleotide kinase with […] was used to determine the relative amount of RNA loaded in each lane by rehybridizing the blots that have previously been probed with VEGF165. Hybridisation was done under the same conditions with the labelled probe for 18 hours at 42° C. […]” for “days.”

For platelet-activating factor [PAF], the “VEGF expression in non-pregnant cervix” value ([1]; PAF at various concentrations, 24 hours) was “increases” and the “connexin-43 expression in cervix” value ([2]; PAF at various concentrations, non-pregnant cervix, FIG. 12) was “up-regulation”.
In the case of `CC#C[C@]1(O)CC[C@H]2[C@@H]3CCC4=CC(=O)CCC4=C3[C@@H](c3ccc(N(C)C)cc3)C[C@@]21C` [RU486], the preterm delivery [3] is reported as 80 % of animals.
In the case of VEGF, the “slope of stress-strain curve” value ([4]; 10 ng/ml gel intravaginally, protocol B (day 16 to day 20), significant only when applied later in pregnancy) is reported as “statistically significant decrease”, the cervical extensibility ([4]; protocol A (day 12 to day 16)) is reported as “significantly increased” and the cervical extensibility ([4]; protocol B (day 16 to day 20)) is reported as “significantly increased”. For the same compound, the “connexin-43 expression in cervical explants” value ([2]; non-pregnant cervical explants, FIG. 11B) was “up-regulation” and the “connexin-43 expression in myometrial explants” value [5] was “up-regulation”.
In the case of `C[C@]12CC[C@@H]3c4ccc(O)cc4CC[C@H]3[C@@H]1CC[C@@H]2O` [17β-estradiol], the “VEGF mRNA compared to Control” value ([6]; 17β-estradiol alone, non-pregnant cervical explants) is reported as “up-regulates”, the “secreted forms of VEGF in the culture medium” value ([1]; 17β-estradiol, 48 hours, culture medium) is reported as “up-regulates” and the “VEGF protein in the tissue itself” value ([1]; 17β-estradiol, 48 hours, tissue) is reported as “no effect”.
In the case of `CC(=O)[C@H]1CC[C@H]2[C@@H]3CCC4=CC(=O)CC[C@]4(C)[C@H]3CC[C@]12C` [progesterone], the “VEGF mRNA” value ([6]; progesterone at 10^−4 M in the presence of 10^−7 M 17β-estradiol) is reported as “down-regulated”, the “VEGF mRNA” value ([6]; progesterone at 10^−4 M) is reported as “down-regulated” and the “VEGF protein expression in the culture medium” value ([1]; explants primed with 17β-estradiol for 4 hours, then increasing concentration of progesterone, culture medium) is reported as “dose-dependent increase”. For the same compound, the “VEGF protein expression in the tissue” value ([1]; explants primed with 17β-estradiol for 4 hours, then increasing concentration of progesterone, tissue) was “dose-dependent increase”, the “VEGF protein in the culture medium compared with Control” value ([1]; progesterone at 10^−4 M, 48 hours, culture medium) was “down-regulated” and the “VEGF protein in the tissue itself compared with Control” value ([1]; progesterone at 10^−4 M, 48 hours, tissue) was “down-regulated”.
